The values that follow are results of earlier work, collected in patent US9167842B2, “Functional food preparation and use thereof” (priority 2010, dated 2015).

Like-named read-outs stand apart in the source and are kept apart here.

For data set [1] the following is noted: oral, 32 hypercholesterolemic patients, three months.
The conditions of data set [2]: daily folic acid supplement.

`COc1ccc2cc3[n+](cc2c1OC)CCc1cc2c(cc1-3)OCO2` [berberine]: in data set [1], the “reduction of LDL cholesterol” value is listed as 25%, the “reduction of plasma cholesterol” value was 29% and the reduction of triglycerides was 35%.
Regarding `Nc1nc2ncc(CNc3ccc(C(=O)N[C@@H](CCC(=O)O)C(=O)O)cc3)nc2c(=O)[nH]1` [folic acid], the reduction of homocysteine result in data set [2] was “about 60%”; in data set [2] (dose doubled), “about 90%”.
